{
  "source": "patent US20040116420A1",
  "about": "(priority 2001, published 2004)",
  "key": {"HSV-1 protease": {"target": "T1, HSV-1 protease (Human herpesvirus 1, UniProt P10210)", "T1 construct": "6xHis (N); made in house; host or cells: baculovirus expression system", "T1 sequence (P10210 1-247)": "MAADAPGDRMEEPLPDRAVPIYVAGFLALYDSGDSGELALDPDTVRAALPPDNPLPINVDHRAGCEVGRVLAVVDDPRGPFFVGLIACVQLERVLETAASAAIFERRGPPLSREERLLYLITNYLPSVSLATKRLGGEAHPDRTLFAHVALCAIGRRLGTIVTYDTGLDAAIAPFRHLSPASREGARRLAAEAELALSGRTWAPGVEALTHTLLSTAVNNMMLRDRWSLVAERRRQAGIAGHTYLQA", "assay": "Enzymatic assay for HSV-1 protease (assembly) inhibitor, fluorescence polarization", "assay_type": "biochemical", "settings": "read-out: HSV-1 Enzyme inhibition IC50", "outline": "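Fluorescence polarization read-out: after avidin stop, cleavage of a biotinylated DTAF-labelled release-site peptide by recombinant N-His6 HSV-1 protease was compared with no-inhibitor wells. Enzyme and compound were preincubated 30 min, then substrate reacted 60 min, all at room temperature, pH 7.4 citrate buffer with TCEP.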"}, "HSV-1": {"test_system": "HSV-1", "assay": "Antiviral activity, HSV-1 in Vero cells, plaque method", "assay_type": "cell-based", "settings": "Human alphaherpesvirus 1, 20 hours, 90% inhibition of plaque formation", "outline": "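This is a virus-yield read-out. The culture medium was frozen at −80° C and thawed, and the plaques it formed were counted. It came from Vero monolayers infected with 50,000 pfu HSV-1 and then exposed to the compound for 20 h at 37° C. EC90 is the concentration inhibiting 90% of plaque formation relative to the untreated infected control.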"}, "Vero cells": {"test_system": "Vero cells", "assay": "Cytotoxicity, Vero cells, Alamar Blue", "assay_type": "cell-based", "settings": "25 μM, 20 hours", "outline": "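Living-cell ratio versus untreated control was read by Alamar Blue absorbance after about 6 h of dye incubation. Before that, Vero cells had received 25 μM test compound in 2% FBS-DMEM for 20 hours at 37 °C under 5% CO2.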"}, "Human plasma stability": {"assay": "Human plasma stability", "assay_type": "in vitro ADME", "protocol": "An Assay Method for Human Plasma Stability Human plasma was thawed, 200 μl each thereof was placed in each cell of a 96-well plate immediately thereafter, and 4 μl of solution of each test compound in 1 mM DMF was added thereto. A microplate reader for fluorescence absorption was used to assay changes in fluorescence, and half life was determined based on the changes."}, "[1]": {"test_system": "HSV1 DNA polymerase variant", "assay": "Antiviral activity 2, plaque formation in HEL cells", "assay_type": "cell-based, HSV-1", "settings": "Human alphaherpesvirus 1, HEL, 72 h, read-out: Antiviral activity: IC50, HSV1 DNA polymerase variant", "protocol": "(§1) An Assay Method for Antiviral Activity 2\n(§2) The HEL cells were sowed on a 48-well plate and then cultured overnight. The culture supernatant was removed, and 100 μl of 2% FBS-DMEM containing 40 Plaque-forming units of HSV-1, HSV-2, VZV, or CMV was added. A viral solution Was removed 1 hour later, and 500 μl of 2% FBS-DMEM containing 0.5% methylcellulose comprising 50, 25, 12.5, 6.3, 3.2, or 1.6 μM of the test compound was added. In this case, a substance to which 2% FBS-DMEM containing 0.5% methylcellulose not comprising any test compound had been added was designated as a control. In the case of HSV-1, HSV-2, or VZV, incubation was carried out in the presence of 5% CO2 at 37° C. for 3 days. In the case of CMV, incubation was carried out under the same conditions for 14 days. After they were immobilized on formalin and stained with bromophenol blue, the amount of plaque formed was counted, and the ratio of plaque formation of the drug-containing reaction system relative to the control was determined. The concentration of the drug with which the ratio of plaque formation reaches 50% was calculated and determined to be IC50. Concerning HSV-1, an aciclovir-resistant thymidine kinase variant and a DNA polymerase variant were examined in addition to a general aciclovir-sensitive strain."}, "HSV1 Sensitive strain": {"test_system": "HSV1 Sensitive strain", "assay": "Antiviral activity 2, plaque formation in HEL cells", "assay_type": "cell-based, HSV-1", "settings": "Human alphaherpesvirus 1, 72 h, 3 days", "protocol": "as §1, §2"}, "[2]": {"test_system": "HSV1 Thimidine kinase variant", "assay": "Antiviral activity 2, plaque formation in HEL cells", "assay_type": "cell-based, HSV-1", "settings": "Human alphaherpesvirus 1, HEL, 72 h, read-out: Antiviral activity: IC50, HSV1 Thimidine kinase variant", "protocol": "as §1, §2"}, "HSV2": {"test_system": "HSV2", "assay": "Antiviral activity 2, plaque formation in HEL cells", "assay_type": "cell-based, HSV-2", "settings": "Human alphaherpesvirus 2, 72 h, 3 days", "protocol": "as §1, §2"}, "VZV": {"test_system": "VZV", "assay": "Antiviral activity 2, plaque formation in HEL cells", "assay_type": "cell-based", "settings": "Human alphaherpesvirus 3, 72 h, 3 days", "protocol": "as §1, §2"}, "HCMV": {"test_system": "HCMV", "assay": "Antiviral activity 2, plaque formation in HEL cells", "assay_type": "cell-based, CMV", "settings": "Human betaherpesvirus 5, 336 h, 14 days", "protocol": "as §1, §2"}},
  "data": [
    {"smiles": "Cc1c(NC(=O)OC(C)(C)C)ccc2nc(N(C)[C@@H](Cc3ccccc3)C(=O)NCc3ccccn3)oc(=O)c12", "note": "[Compound No.22, [5-Methyl-2-(methyl-{2-phenyl-1S-[(pyridin-2-ylmethyl)-carbamoyl]-ethyl}-amino)-4-oxo-4H-benzo[d][1,3]oxazin-6-yl]-carbamic Acid Tert-Butyl Ester]", "values": [
      {"measurement": "IC50", "setting": "HSV-1 protease", "result": 1.8, "unit": "µM"},
      {"measurement": "EC90", "setting": "HSV-1", "result": 9, "unit": "µM"},
      {"measurement": "Cell viability (% of control)", "setting": "Vero cells", "result": 66.5, "unit": "%"},
      {"measurement": "half-life at 19.6 μM", "setting": "Human plasma stability", "result": 3.02, "unit": "h"},
      {"measurement": "IC50", "setting": "[1]", "result": 14.3, "unit": "µM"},
      {"measurement": "IC50", "setting": "HSV1 Sensitive strain", "result": 9.5, "unit": "µM"},
      {"measurement": "IC50", "setting": "[2]", "result": 16.3, "unit": "µM"},
      {"measurement": "IC50", "setting": "HSV2", "result": 16.6, "unit": "µM"},
      {"measurement": "IC50", "setting": "VZV", "result": "> 25", "unit": "µM"},
      {"measurement": "IC50", "setting": "HCMV", "result": "> 25", "unit": "µM"}
    ]},
    {"smiles": "Cc1c(NC(=O)OC(C)(C)C)ccc2nc(N[C@@H](Cc3ccccc3)C(=O)N(C)CCc3ccccn3)oc(=O)c12", "note": "[Compound No.21, (5-Methyl-2-{1-[methyl-1S-(2-pyridin-2-yl-ethyl)-carbamoyl]-2-phenyl-ethylamino}-4-oxo-4H-benzo[d][1,3]oxazin-6-yl)-carbamic Acid Tert-Butyl Ester]", "values": [
      {"measurement": "IC50", "setting": "HSV-1 protease", "result": 1.5, "unit": "µM"},
      {"measurement": "EC90", "setting": "HSV-1", "result": 5.9, "unit": "µM"},
      {"measurement": "Cell viability (% of control)", "setting": "Vero cells", "result": 53.2, "unit": "%"},
      {"measurement": "half-life at 19.6 μM", "setting": "Human plasma stability", "result": 1.78, "unit": "h"},
      {"measurement": "IC50", "setting": "[1]", "result": 6.9, "unit": "µM"},
      {"measurement": "IC50", "setting": "HSV1 Sensitive strain", "result": 6.1, "unit": "µM"},
      {"measurement": "IC50", "setting": "[2]", "result": 16.1, "unit": "µM"},
      {"measurement": "IC50", "setting": "HSV2", "result": 10.7, "unit": "µM"},
      {"measurement": "IC50", "setting": "VZV", "result": 6.4, "unit": "µM"},
      {"measurement": "IC50", "setting": "HCMV", "result": "> 5", "unit": "µM"}
    ]},
    {"smiles": "Cc1c(NC(=O)OC(C)(C)C)ccc2nc(NC3(C(=O)N(C)CCc4ccncc4)CCCCC3)oc(=O)c12", "note": "[Compound No.129, (5-Methyl-2-{1-[methyl-(2-pyridin-4-yl-ethyl)-carbamoyl]-cyclohexylamino}-4-oxo-4H-benzo[d][1,3]oxazin-6-yl)-carbamic acid tert-butyl ester]", "values": [
      {"measurement": "IC50", "setting": "HSV-1 protease", "result": 1.1, "unit": "µM"},
      {"measurement": "EC90", "setting": "HSV-1", "result": 5.8, "unit": "µM"},
      {"measurement": "half-life at 19.6 μM", "setting": "Human plasma stability", "result": "> 15", "unit": "h"},
      {"measurement": "IC50", "setting": "[1]", "result": 8.7, "unit": "µM"},
      {"measurement": "IC50", "setting": "HSV1 Sensitive strain", "result": 5.8, "unit": "µM"},
      {"measurement": "IC50", "setting": "[2]", "result": 17.7, "unit": "µM"},
      {"measurement": "IC50", "setting": "HSV2", "result": 10.3, "unit": "µM"},
      {"measurement": "IC50", "setting": "VZV", "result": "> 5", "unit": "µM"},
      {"measurement": "IC50", "setting": "HCMV", "result": "> 5", "unit": "µM"}
    ]}
  ]
}
